The record followed here is US9783509B2, “Six-membered C-N-linked aryl sulfide derivatives and aryl sulfoxide derivatives as pest conrol agents” (BAYER CROPSCIENCE AKTIENGESELLSCHAFT, priority 2013, dated 2017).

Where two headings read alike, the source gives them in different places.

A short description of data set [1]: log P by reversed-phase HPLC analogously to OECD Guideline 117. Format: physicochemical. How it is done:
The log P values were determined analogously to OECD Guideline 117 (EC Directive 92/69/EEC) by HPLC (high-performance liquid chromatography) using reversed-phase columns (C 18), by the following methods:
[a] LC-MS determination in the acidic range is effected at pH 2.7 with 0.1% aqueous formic acid and acetonitrile (containing 0.1% formic acid) as eluents with a linear gradient from 10% acetonitrile to 95% acetonitrile; or with 0.025% aqueous trifluoroacetic acid and acetonitrile (containing 0.025% trifluoroacetic acid) as eluents with a linear gradient from 50% acetonitrile to 80% acetonitrile.
[b] LC-MS determination in the neutral range is effected at pH 7.8 with 0.001 molar aqueous ammonium hydrogencarbonate solution and acetonitrile as eluents; linear gradient from 10% acetonitrile to 95% acetonitrile.
Calibration is effected with solutions of a homologous series of unbranched alkan-2-ones (having 3 to 16 carbon atoms) with known log P values (log P values determined on the basis of the retention times by linear interpolation between two successive alkanones).

The subject of data set [2] is greenhouse red spider mite (Tetranychus urticae). As to the kind of experiment: Tetranychus urticae spray test, OP-resistant (bean leaf discs). Format: in vivo. To be noted: application rate 500 g/ha, after 6 days; for pest or weed control at 500 g/ha: Tetranychus urticae, foliar, 144 h, read-out: efficacy (spider mites killed). How it is done: Tetranychus urticae—Spray Test, OP-Resistant
Solvent: 78.0 parts by weight of acetone • • 1.5 parts by weight of dimethylformamide
Emulsifier: alkylaryl polyglycol ether
To produce an appropriate active ingredient formulation, 1 part by weight of active ingredient is dissolved using the specified parts by weight of solvent and made up with water containing an emulsifier concentration of 1000 ppm until the desired concentration is attained. To produce further test concentrations, the preparation is diluted with emulsifier-containing water.
Discs of bean leaves (Phaseolus vulgaris) infested by all stages of the greenhouse red spider mite (Tetranychus urticae) are sprayed with an active ingredient formulation of the desired concentration.
After 6 days, the efficacy in % is determined. 100% means that all the spider mites have been killed; 0% means that none of the spider mites have been killed.

Setting [3] is: reversed-phase C18 HPLC column, pH 2.7, table column, [a] acidic range, pH 2.7, formic acid (or trifluoroacetic acid)/acetonitrile, read-out: LogP[a].
Where [4] appears, read: reversed-phase C18 HPLC column, pH 7.8, table column, [b] neutral range, pH 7.8, ammonium hydrogencarbonate/acetonitrile, read-out: LogP[b].
The mark [5] stands for this setting: [a] acidic range, pH 2.7, formic acid (or trifluoroacetic acid)/acetonitrile.
Where [6] appears, read: [b] neutral range, pH 7.8, ammonium hydrogencarbonate/acetonitrile.
Where [7] appears, read: reversed-phase C18 HPLC column, pH 2.7, running text, [a] acidic range, pH 2.7, read-out: log P[a].
The mark [8] stands for this setting: reversed-phase C18 HPLC column, pH 7.8, running text, [b] neutral range, pH 7.8, read-out: log P[b].
[9] abbreviates: reversed-phase C18 HPLC column, pH 2.7, running text, HCOOH, read-out: log P(HCOOH).

On to `Cc1cc(F)c(-n2ncc(=O)n(C)c2=O)cc1[S+]([O-])CC(F)(F)F` (single isomer, unassigned; (-)) [Ex. No. 28, (−)-2-[2-fluoro-4-methyl-5-(2,2,2-trifluoroethylsulphinyl)phenyl]-4-methyl-1,2,4-triazine-3,5-dione], for which the chromatographic logP in data set [1] (setting [3]) is 1.95; in data set [1] (setting [4]), 1.9.

For the compound `Cc1cc(F)c(-n2ncc(=O)n(CC(F)(F)F)c2=O)cc1[S+]([O-])CC(F)(F)F` (single isomer, unassigned) [compound 51], the “LogP[a]” value in data set [1] (setting [5]) was 2.62. In addition, the “LogP[b]” value in data set [1] (setting [6]) was determined as 2.57.

Regarding `CCn1c(=O)ccn(-c2ccc(C)c(SCC(F)(F)F)c2)c1=O` [compound 83], the “LogP[a]” value in data set [1] (setting [5]) was found to be 2.74. The “LogP[b]” value in data set [1] (setting [6]) is recorded as 2.81.

`Cc1cc(C)c([S+]([O-])CC(F)(F)F)cc1-n1ncc(=O)n(C(C)C)c1=O` (racemic) [compound 38]: the “efficacy (spider mites killed)” value in data set [2] was found to be 100%. In data set [1] (setting [5]), the “LogP[a]” value is 2.69. In addition, the “LogP[b]” value in data set [1] (setting [6]) is 2.67.

In the case of `Cn1c(=O)cnn(-c2cc([S+]([O-])CC(F)(F)F)c(Cl)cc2Cl)c1=O` (racemic) [compound 13], the “efficacy (spider mites killed)” value in data set [2] came to 90%. In addition, the “LogP[a]” value in data set [1] (setting [5]) is 2.48.

As to `Cc1ccc(-n2ncc(=O)n(C)c2=O)cc1[S+]([O-])CC(F)(F)F` (racemic) [compound 24], the “efficacy (spider mites killed)” value in data set [2] came out at 100%. Also, the “LogP[a]” value in data set [1] (setting [5]) was found to be 1.84. Also, the “LogP[b]” value in data set [1] (setting [6]) turned out to be 1.83.

Take `Cc1cc(F)c(-n2c(C)c(C#N)c(=O)[nH]c2=O)cc1[S+]([O-])CC(F)(F)F` (stereo not shown) [Ex. No. 16, 1-{2-Fluoro-4-methyl-5-[(2,2,2-trifluoroethyl)sulphinyl]phenyl}-6-methyl-2,4-dioxo-1,2,3,4-tetrahydropyrimidine-5-carbonitrile]: in data set [2], the pest or weed control at 500 g/ha worked out at 90%. In addition, the results for the chromatographic logP in data set [1] (setting [3]) and in data set [1] (setting [4]) were 1.58 and 0.88, respectively.

Regarding `Cc1cc(F)c(-n2ncc(=O)[nH]c2=O)cc1[S+]([O-])CC(F)(F)F` (stereo not shown) [Ex. No. 1, 2-{2-Fluoro-4-methyl-5-[(2,2,2-trifluoroethyl)sulphinyl]phenyl}-1,2,4-triazine-3,5(2H,4H)-dione], the chromatographic logP in data set [1] (setting [7]) and in data set [1] (setting [3]) was 1.58 each time.

Turning to `CCn1c(=O)cnn(-c2cc([S+]([O-])CC(F)(F)F)c(C)cc2C)c1=O` (racemic) [compound 35], in data set [2], the “efficacy (spider mites killed)” value turned out to be 100%. In addition, the “LogP[a]” value in data set [1] (setting [5]) worked out at 2.31. Moreover, the “LogP[b]” value in data set [1] (setting [6]) is given as 2.27.

For `CCOC(=O)NC(=O)c1nn(-c2cc(SCC(F)(F)F)c(C)cc2F)c(=O)[nH]c1=O` [Ethyl [(2-{2-fluoro-4-methyl-5-[(2,2,2-trifluoroethyl)sulphanyl]phenyl}-3,5-dioxo-2,3,4,5-tetrahydro-1,2,4-triazin-6-yl)carbonyl]arbamate], the chromatographic logP in data set [1] ([a] acidic range, pH 2.7, read-out: log P[a]) stood at 2.5.

Take `Cc1cc(C)c(-n2ncc(=O)n(CC(F)(F)F)c2=O)cc1SCC(F)(F)F` [Ex. No. 7]: the “efficacy (spider mites killed)” value in data set [2] amounted to 90%. The “LogP[a]” value in data set [1] (setting [5]) stood at 3.74.

As to `CCO/C=C/C(=O)NC(=O)Nc1cc(SCC(F)(F)F)c(C)cc1F` [(2E)-3-Ethoxy-N-({2-fluoro-4-methyl-5-[(2,2,2-trifluoroethyl)sulphanyl]phenyl}carbamoyl)-acrylamide], the results for the chromatographic logP in data set [1] (setting [7]) and in data set [1] (setting [8]) were 3.78 and 3.7, respectively.

For the compound `Cc1cc(C)c([S+]([O-])CC(F)(F)F)cc1-n1ncc(=O)n(CC2CC2)c1=O` (racemic) [compound 37], in data set [2], the “efficacy (spider mites killed)” value was 100%. Besides, the “LogP[a]” value in data set [1] (setting [5]) came to 2.77. Further, the “LogP[b]” value in data set [1] (setting [6]) stood at 2.73.

With `Cc1cc(F)c(-n2ccc(=O)n(CC(C)C)c2=O)cc1SCC(F)(F)F` [compound 81], the “efficacy (spider mites killed)” value in data set [2] turned out to be 90%. Besides, the “LogP[a]” value in data set [1] (setting [5]) is reported as 3.56. Also, in data set [1] (setting [6]), the “LogP[b]” value was 3.62.

Regarding `CCc1cc(CC)c(SSc2cc(NC(C)=O)c(CC)cc2CC)cc1NC(C)=O` [N,N′-[Disulphanediylbis(4,6-diethylbenzene-3,1-diyl)]diacetamide], the chromatographic logP in data set [1] (setting [9]) was 4.02.

Turning to `Cc1ccc(-n2ccc(=O)[nH]c2=O)cc1SCC(F)(F)F` [compound 88], the “efficacy (spider mites killed)” value in data set [2] was determined as 90%. Besides, the “LogP[a]” value in data set [1] (setting [5]) worked out at 1.99. Besides, the “LogP[b]” value in data set [1] (setting [6]) amounted to 2.05.

Take `Cc1cc(C)c(-n2ncc(=O)n(CC(C)C)c2=O)cc1SCC(F)(F)F` [compound 41]: in data set [2], the “efficacy (spider mites killed)” value was 90%. Moreover, the “LogP[a]” value in data set [1] (setting [5]) was found to be 4.18. For the same compound, the “LogP[b]” value in data set [1] (setting [6]) is on record as 4.1.

For `Cc1cc(C)c(-n2ccc(=O)[nH]c2=O)cc1SCC(F)(F)F` [compound 89], in data set [2], the “efficacy (spider mites killed)” value stood at 100%. Besides, the “LogP[a]” value in data set [1] (setting [5]) is listed as 2.18. The “LogP[b]” value in data set [1] (setting [6]) came out at 2.25.

As to `CCOC(=O)c1cn(-c2cc(SCC(F)(F)F)c(C)cc2F)c(=O)n(C2CC2)c1=O` [Ethyl 3-cyclopropyl-1-{2-fluoro-4-methyl-5-[(2,2,2-trifluoroethyl)sulphanyl]phenyl}-2,4-dioxo-1,2,3,4-tetrahydropyrimidine-5-carboxylate], the chromatographic logP in data set [1] (setting [7]) was found to be 3.07; in data set [1] (setting [8]) it was 3.02.

On to `Cc1cc(C)c([S+]([O-])CC(F)(F)F)cc1-n1ccc(=O)[nH]c1=O` (stereo not shown) [compound 99], for which the “efficacy (spider mites killed)” value in data set [2] amounted to 100%. For the same compound, in data set [1] (setting [5]), the “LogP[a]” value stood at 1.35. Also, the “LogP[b]” value in data set [1] (setting [6]) came to 1.38.

In the case of `Cc1cc(F)c(-n2ncc(=O)[nH]c2=O)cc1SCC(F)(F)F` [2-{2-Fluoro-4-methyl-5-[(2,2,2-trifluoroethyl)sulphanyl]phenyl}-1,2,4-triazine-3,5(2H,4H)-dione], the chromatographic logP in data set [1] (setting [7]) stood at 2.45.

With `Cc1cc(F)c(-n2ncc(=O)n(Cc3ccccc3)c2=O)cc1SCC(F)(F)F` [compound 42], the “efficacy (spider mites killed)” value in data set [2] was found to be 100%. The “LogP[a]” value in data set [1] (setting [5]) was found to be 4.04. In addition, the “LogP[b]” value in data set [1] (setting [6]) is listed as 3.93.

Turning to `CCn1c(=O)cnn(-c2cc(SCC(F)(F)F)c(C)cc2C)c1=O` [compound 33], in data set [2], the “efficacy (spider mites killed)” value is reported as 100%. The “LogP[a]” value in data set [1] (setting [5]) was 3.45. In data set [1] (setting [6]), the “LogP[b]” value is recorded as 3.38.

For the compound `Cc1cc(F)c(-n2c(C)c(C#N)c(=O)[nH]c2=O)cc1SCC(F)(F)F` [Ex. No. 17, 1-{2-Fluoro-4-methyl-5-[(2,2,2-trifluoroethyl)sulphanyl]phenyl}-6-methyl-2,4-dioxo-1,2,3,4-tetrahydropyrimidine-5-carbonitrile], the pest or weed control at 500 g/ha in data set [2] was 90%. The chromatographic logP in data set [1] (setting [7]) and in data set [1] (setting [3]) was 2.43 in each case.

As to `Cc1cc(C)c(-n2ncc(=O)n(C)c2=O)cc1SCC(F)(F)F` [Ex. No. 5], in data set [2], the “efficacy (spider mites killed)” value turned out to be 100%. Further, in data set [1] (setting [5]), the “LogP[a]” value is 3.08.

With `Cc1cc(C)c(-n2ncc(=O)n(C(C)C)c2=O)cc1SCC(F)(F)F` [compound 36], the “efficacy (spider mites killed)” value in data set [2] is reported as 100%. The “LogP[a]” value in data set [1] (setting [5]) is given as 3.88. For the same compound, in data set [1] (setting [6]), the “LogP[b]” value was 3.81.

As to “1-{2,4-Diethyl-5-[(2,2,2-trifluoroethyl)sulphinyl]phenyl}-6-methyl-2,4-dioxo-1,2,3,4-tetrahydropyrimidine-5-carbonitrile”, the “log P[a]” value in data set [1] (pH 2.7) was 3.16.

For `Cc1cc(F)c(-n2ccc(=O)[nH]c2=O)cc1SCC(F)(F)F` [Ex. No. 55, 1-{2-Fluoro-4-methyl-5-[(2,2,2-trifluoroethyl)sulphanyl]phenyl}pyrimidine-2,4(1H,3H)-dione], in data set [2], the pest or weed control at 500 g/ha worked out at 100%. The chromatographic logP in data set [1] (setting [7]) turned out to be 2.13; in data set [1] (setting [3]) it was 2.06; in data set [1] (setting [8]), 2.06; in data set [1] (setting [4]), 2.13.

As for `Cc1cc(F)c(-n2nc(C(=O)O)c(=O)[nH]c2=O)cc1SCC(F)(F)F` [2-{2-Fluoro-4-methyl-5-[(2,2,2-trifluoroethyl)sulphanyl]phenyl}-3,5-dioxo-2,3,4,5-tetrahydro-1,2,4-triazine-6-carboxylic acid], in data set [1] (setting [7]), the chromatographic logP stood at 1.79.

Consider `CCc1cc(CC)c(SCC(F)(F)F)cc1NC(C)=O` [N-{2,4-Diethyl-5-[(2,2,2-trifluoroethyl)sulphanyl]phenyl}acetamide], for which, in data set [1] (setting [9]), the chromatographic logP came to 3.07.

Regarding `Cc1cc(C)c([S+]([O-])CC(F)(F)F)cc1-n1ncc(=O)n(CC(F)(F)F)c1=O` (single isomer, unassigned) [compound 46], the “LogP[a]” value in data set [1] (setting [5]) was determined as 2.72. Moreover, the “LogP[b]” value in data set [1] (setting [6]) is 2.66.
